The values below come from patent publication US9012443B2 (Amgen Inc., priority 2011, dated 2015).

Assay [1] deals with T1, Nav 1.7 (Homo sapiens (Human), UniProt Q15858). As to the kind of experiment: Nav 1.7 IWQ in vitro assay (IonWorks Quattro population patch-clamp). In kind it is cell-based. Conditions: 293 cells stably transfected with Nav 1.7; second part of table; read-out: Nav1.7 IWQ IC50 IP. Summed up: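 Percent block, measured in duplicate, came from peak minus end-of-pulse current on the 26th −20 mV step, and IC50 was fitted against concentration. Stably transfected 293 cells were recorded in population patch-clamp mode before and after a single test concentration, which was added over 3–8 min while cells were unclamped.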
T1 sequence (Q15858 whole entry): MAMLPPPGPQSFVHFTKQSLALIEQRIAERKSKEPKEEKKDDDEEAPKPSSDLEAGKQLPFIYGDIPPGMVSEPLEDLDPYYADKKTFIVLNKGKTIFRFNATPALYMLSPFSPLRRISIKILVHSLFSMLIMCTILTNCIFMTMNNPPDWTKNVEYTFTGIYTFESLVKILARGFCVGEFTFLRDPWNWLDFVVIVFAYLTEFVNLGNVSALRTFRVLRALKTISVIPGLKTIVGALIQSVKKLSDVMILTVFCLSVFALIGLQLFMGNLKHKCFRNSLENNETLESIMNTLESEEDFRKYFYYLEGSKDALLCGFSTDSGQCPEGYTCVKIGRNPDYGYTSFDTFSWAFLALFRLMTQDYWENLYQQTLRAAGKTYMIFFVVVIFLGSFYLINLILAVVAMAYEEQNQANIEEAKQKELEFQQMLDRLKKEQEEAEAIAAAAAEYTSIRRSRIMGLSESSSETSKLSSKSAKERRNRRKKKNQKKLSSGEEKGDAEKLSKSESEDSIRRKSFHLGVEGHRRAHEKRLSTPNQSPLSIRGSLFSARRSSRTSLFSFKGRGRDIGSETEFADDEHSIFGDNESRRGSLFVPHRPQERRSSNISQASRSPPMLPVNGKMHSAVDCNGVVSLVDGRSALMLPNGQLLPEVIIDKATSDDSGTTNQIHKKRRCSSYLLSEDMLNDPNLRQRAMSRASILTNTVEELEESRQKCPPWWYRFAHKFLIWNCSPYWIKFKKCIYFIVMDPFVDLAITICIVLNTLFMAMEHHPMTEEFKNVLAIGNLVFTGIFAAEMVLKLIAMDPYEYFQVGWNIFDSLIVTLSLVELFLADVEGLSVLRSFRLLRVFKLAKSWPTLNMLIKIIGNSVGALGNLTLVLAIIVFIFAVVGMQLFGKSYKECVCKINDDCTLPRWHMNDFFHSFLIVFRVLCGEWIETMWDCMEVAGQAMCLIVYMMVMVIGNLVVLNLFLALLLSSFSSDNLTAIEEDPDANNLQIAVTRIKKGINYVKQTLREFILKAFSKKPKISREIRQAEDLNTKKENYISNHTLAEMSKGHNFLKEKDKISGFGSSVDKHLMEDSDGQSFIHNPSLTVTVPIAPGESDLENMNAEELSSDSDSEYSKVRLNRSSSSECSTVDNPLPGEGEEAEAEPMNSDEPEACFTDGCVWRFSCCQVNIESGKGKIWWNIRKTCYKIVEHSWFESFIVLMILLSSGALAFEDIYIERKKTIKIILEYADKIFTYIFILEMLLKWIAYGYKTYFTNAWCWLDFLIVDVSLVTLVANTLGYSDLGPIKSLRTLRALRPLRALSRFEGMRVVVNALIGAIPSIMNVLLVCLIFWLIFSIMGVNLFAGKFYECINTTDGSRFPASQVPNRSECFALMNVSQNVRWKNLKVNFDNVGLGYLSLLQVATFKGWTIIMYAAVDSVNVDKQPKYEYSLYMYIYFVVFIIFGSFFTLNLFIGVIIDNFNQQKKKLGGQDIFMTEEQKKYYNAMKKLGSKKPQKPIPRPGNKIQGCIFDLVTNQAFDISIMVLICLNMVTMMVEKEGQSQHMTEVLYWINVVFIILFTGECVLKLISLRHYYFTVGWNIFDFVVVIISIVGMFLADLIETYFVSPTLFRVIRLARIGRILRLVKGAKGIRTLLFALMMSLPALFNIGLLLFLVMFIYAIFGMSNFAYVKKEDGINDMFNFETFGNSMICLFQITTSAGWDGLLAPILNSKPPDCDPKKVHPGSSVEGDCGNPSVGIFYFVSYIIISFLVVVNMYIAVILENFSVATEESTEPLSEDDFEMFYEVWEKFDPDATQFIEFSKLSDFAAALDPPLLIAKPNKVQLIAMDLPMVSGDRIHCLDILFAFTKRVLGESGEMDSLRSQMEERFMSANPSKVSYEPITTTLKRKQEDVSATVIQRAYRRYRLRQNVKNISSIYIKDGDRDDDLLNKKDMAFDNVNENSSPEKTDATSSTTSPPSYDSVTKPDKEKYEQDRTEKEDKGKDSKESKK
(Patch clamp records ionic current or voltage across a cell membrane.)

Assay [2] deals with T1, Nav 1.7. As to the kind of experiment: Nav 1.7 in vitro PX assay (PatchXpress whole cell voltage clamp). Conditions: 293 cells, human Nav1.7, partially inactivated state; read-out: Nav1.7 PX IC50 IP. In kind it is cell-based. Summed up:
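Partially inactivated channel state (holding potential for 20–50% inactivation) probed in human Nav1.7-transfected 293 cells by automated patch clamp, test pulse −10 mV for 20 msec.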

For the molecule `CN(Cc1ccccc1)c1cccc2cc(S(=O)(=O)Nc3ncns3)ccc12` [Example 100, 5-(benzyl(methyl)amino)-N-(1,2,4-thiadiazol-5-yl)naphthalene-2-sulfonamide], the IC50 at Nav 1.7 [1] worked out at 0.29 µM; at Nav 1.7 [2], 1.46 µM.
In the case of `O=C(c1ccccc1)N1CCCC1c1cccc2cc(S(=O)(=O)Nc3nccs3)ccc12` (centres unmarked) [Example 101], the values for the 50% inhibitory concentration (IC50) on Nav 1.7 [1] and at Nav 1.7 [2] were 1.16 µM and 11.8 µM, respectively.
Take `O=S(=O)(Nc1nccs1)c1ccc2c(C3CCCN3C3CCOCC3)cccc2c1` (centres unmarked) [Example 102, 5-(1-(TETRAHYDRO-2H-PYRAN-4-YL)PYRROLIDIN-2-YL)-N-(THIAZOL-2-YL)NAPHTHALENE-2-SULFONAMIDE 2,2,2-TRIFLUOROACETATE]: the 50% inhibitory concentration (IC50) on Nav 1.7 [1] was found to be 0.11 µM; at Nav 1.7 [2], 1.54 µM.
On the same counts, the results for `O=S(=O)(Nc1nccs1)c1ccc2c([C@@H]3CCCN3C3CCOCC3)cccc2c1` [Example 103, (S)-5-(1-(TETRAHYDRO-2H-PYRAN-4-YL)PYRROLIDIN-2-YL)-N-(THIAZOL-2-YL)NAPHTHALENE-2-SULFONAMIDE COMPOUND WITH DIETHYLAMINE (1:1)] are 1.58 µM and 14.5 µM.
In the case of `O=S(=O)(Nc1nccs1)c1ccc2c([C@H]3CCCN3C3CCOCC3)cccc2c1` [Example 104, (R)-5-(1-(TETRAHYDRO-2H-PYRAN-4-YL)PYRROLIDIN-2-YL)-N-(THIAZOL-2-YL)NAPHTHALENE-2-SULFONAMIDE COMPOUND WITH DIETHYLAMINE (1:1)], the IC50 worked out at 0.08 µM on Nav 1.7 [1] and 1.99 µM on Nav 1.7 [2].
Take `N#CCn1c(-c2cccc3cc(S(=O)(=O)Nc4ccncn4)ccc23)cc2cc(F)ccc21` [Example 105]: the 50% inhibitory concentration (IC50) at Nav 1.7 [1] turned out to be 2.48 µM; on Nav 1.7 [2], 7.84 µM.
Taken in the same sequence, the figures for `Cn1c(-c2cccc3cc(S(=O)(=O)Nc4ccncn4)ccc23)cc2cc(F)ccc21` [Example 106] were 1.6 µM and 3.84 µM.
Turning to `COc1cc(C(F)(F)F)ccc1-c1cccc2cc(S(=O)(=O)Nc3ncc(F)s3)ccc12` [Example 107], the values for the half-maximal inhibitory concentration (IC50) on Nav 1.7 [1] and at Nav 1.7 [2] were 0.33 µM and 3.32 µM, respectively.
For `O=S(=O)(Nc1ncc(F)s1)c1ccc2c(-c3ccc(C(F)(F)F)cc3C3=CCNCC3)cccc2c1` [Example 108], the 50% inhibitory concentration (IC50) on Nav 1.7 [1] was 0.17 µM; on Nav 1.7 [2] it was 0.21 µM.
Taken in the same sequence, the figures for `Cn1cncc1-c1cc(C(F)(F)F)ccc1-c1cccc2cc(S(=O)(=O)Nc3ncc(F)s3)ccc12` [Example 110] were 0.04 µM and 0.14 µM.
Consider `Cn1ccnc1-c1cc(C(F)(F)F)ccc1-c1cccc2cc(S(=O)(=O)Nc3ncc(F)s3)ccc12` [Example 111], for which the figures for the IC50 on Nav 1.7 [1] and on Nav 1.7 [2] were 0.06 µM and 0.332 µM, respectively.
On the same counts, the results for `O=S(=O)(Nc1ncc(F)s1)c1ccc2c(-c3ccc(C(F)(F)F)cc3-n3ccnc3)cccc2c1` [Example 112] are 0.1 µM and 0.459 µM.
Consider `O=S(=O)(Nc1ncc(F)s1)c1ccc2c(-c3ccc(C(F)(F)F)cc3C3CCNCC3)cccc2c1` [Example 113], for which the figures for the IC50 at Nav 1.7 [1] and on Nav 1.7 [2] were 0.08 µM and 0.118 µM, respectively.
As for `O=S(=O)(Nc1ccncn1)c1ccc2c(-c3cc4cc(F)ccc4[nH]3)cccc2c1` [Example 114], the IC50 on Nav 1.7 [1] stood at 0.82 µM; on Nav 1.7 [2] it was 11.3 µM.
On the same counts, the results for `COc1cc(-c2ccccc2)ccc1-c1cccc2cc(S(=O)(=O)Nc3ccncn3)ccc12` [Example 115] are 0.18 µM and 0.692 µM.
Taken in the same sequence, the figures for `CN1CCC(c2cc(C(F)(F)F)ccc2-c2cccc3cc(S(=O)(=O)Nc4ccncn4)ccc23)CC1` [Example 116] were 0.07 µM and 0.623 µM.
On the same counts, the results for `CS(=O)(=O)c1cc(C(F)(F)F)ccc1-c1cccc2cc(S(=O)(=O)Nc3ccncn3)ccc12` [Example 117] are 0.18 µM and 2.88 µM.
Regarding `O=S(=O)(Nc1ccncn1)c1ccc2c(-c3ccc(C(F)(F)F)cc3C3(F)CNC3)cccc2c1` [Example 118], the half-maximal inhibitory concentration (IC50) on Nav 1.7 [1] is 0.03 µM; on Nav 1.7 [2], 0.652 µM.
For the molecule `O=S(=O)(Nc1ccncn1)c1ccc2c(-c3ccc(C(F)(F)F)cc3C3=CCNC3)cccc2c1` [Example 119], the values for the half-inhibitory concentration (IC50) on Nav 1.7 [1] and on Nav 1.7 [2] were 0.02 µM and 0.179 µM, respectively.
On the same counts, the results for `O=S(=O)(Nc1ccncn1)c1ccc2c(-c3ccc(C(F)(F)F)cc3C3CCNCC3)cccc2c1` [Example 120] are 0.01 µM and 0.125 µM.
`O=S(=O)(Nc1ccncn1)c1ccc2c(-c3ccc(C(F)(F)F)cc3-n3ccnc3)cccc2c1` [Example 121]: the IC50 on Nav 1.7 [1] turned out to be 0.03 µM; on Nav 1.7 [2], 0.864 µM.
In the case of `CN1CCC=C(c2cc(C(F)(F)F)ccc2-c2cccc3cc(S(=O)(=O)Nc4ccncn4)ccc23)C1` [Example 122], the half-inhibitory concentration (IC50) at Nav 1.7 [1] worked out at 0.04 µM; on Nav 1.7 [2], 0.492 µM.
Taken in the same sequence, the figures for `Cn1cncc1-c1cc(C(F)(F)F)ccc1-c1cccc2cc(S(=O)(=O)Nc3ccncn3)ccc12` [Example 123] were 0.05 µM and 0.516 µM.
Taken in the same sequence, the figures for `Cn1ccnc1-c1cc(C(F)(F)F)ccc1-c1cccc2cc(S(=O)(=O)Nc3ccncn3)ccc12` [Example 124] were 0.06 µM and 0.502 µM.
On the same counts, the results for `COc1cc(C2CC2)ccc1-c1cccc2cc(S(=O)(=O)Nc3ccncn3)ccc12` [Example 125] are 0.04 µM and 0.631 µM.
With `O=S(=O)(Nc1nccs1)c1ccc2c(-c3ccc(F)cc3-c3ccncc3)nccc2c1` [Example 126, 1-(4-FLUORO-2-(PYRIDIN-4-YL)PHENYL)-N-(THIAZOL-2-YL)ISOQUINOLINE-6-SULFONAMIDE], the IC50 came out at 0.13 µM on Nav 1.7 [1] and 2.66 µM on Nav 1.7 [2].
On the same counts, the results for `O=S(=O)(Nc1ccncn1)c1ccc2c(OCc3ncoc3-c3ccccc3)nccc2c1` [Example 130, 1-((5-PHENYLOXAZOL-4-YL)METHOXY)-N-(PYRIMIDIN-4-YL)ISOQUINOLINE-6-SULFONAMIDE] are 0.5 µM and 4.51 µM.
As for `C[C@@H](COc1ccc(Cl)cc1)Oc1nccc2cc(S(=O)(=O)Nc3ccncn3)ccc12` [Example 131, (S)-1-((1-(4-CHLOROPHENOXY)PROPAN-2-YL)OXY)-N-(PYRIMIDIN-4-YL)ISOQUINOLINE-6-SULFONAMIDE], the results for the IC50 on Nav 1.7 [1] and on Nav 1.7 [2] were 0.81 µM and 4.19 µM, respectively.
Consider `O=S(=O)(Nc1ccncn1)c1ccc2c(OCCCc3ccc(Cl)cc3)nccc2c1` [Example 132, 1-(3-(4-CHLOROPHENYL)PROPOXY)-N-(PYRIMIDIN-4-YL)ISOQUINOLINE-6-SULFONAMIDE], for which the IC50 at Nav 1.7 [1] is 0.87 µM; at Nav 1.7 [2], 7.9 µM.
On the same counts, the results for `O=S(=O)(Nc1ccncn1)c1ccc2c(OCc3nccn3Cc3ccc(Cl)cc3)nccc2c1` [Example 133, 1-((1-(4-CHLOROBENZYL)-1H-IMIDAZOL-2-YL)METHOXY)-N-(PYRIMIDIN-4-YL)ISOQUINOLINE-6-SULFONAMIDE] are 1.83 µM and 34.1 µM.
Taken in the same sequence, the figures for `O=S(=O)(Nc1ccncn1)c1ccc2c(OCc3cccc4[nH]ncc34)nccc2c1` [Example 136, 1-((1H-INDAZOL-4-YL)METHOXY)-N-(PYRIMIDIN-4-YL)ISOQUINOLINE-6-SULFONAMIDE] were 3.59 µM and greater than 30 µM.
Taken in the same sequence, the figures for `N#Cc1cccc(COc2nccc3cc(S(=O)(=O)Nc4ccncn4)ccc23)c1` [Example 137, 1-((3-CYANOBENZYL)OXY)-N-(PYRIMIDIN-4-YL)ISOQUINOLINE-6-SULFONAMIDE] were 3.91 µM and greater than 30 µM.
In the case of `COc1ccc(C(F)(F)F)cc1-c1nccc2cc(S(=O)(=O)Nc3ccncn3)ccc12` [Example 139, 1-(2-METHOXY-5-(TRIFLUOROMETHYL)PHENYL)-N-(PYRIMIDIN-4-YL)ISOQUINOLINE-6-SULFONAMIDE], the IC50 at Nav 1.7 [1] stood at 0.01 µM; on Nav 1.7 [2], 0.415 µM.
For the molecule `COc1ccccc1-c1nccc2cc(S(=O)(=O)Nc3ccncn3)ccc12` [Example 140, 1-(2-METHOXYPHENYL)-N-(PYRIMIDIN-4-YL)ISOQUINOLINE-6-SULFONAMIDE], the concentration for half-maximal inhibition (IC50) was determined as 0.09 µM at Nav 1.7 [1] and 10.7 µM on Nav 1.7 [2].
On the same counts, the results for `O=S(=O)(Nc1ccncn1)c1ccc2c(-c3ccc(C(F)(F)F)cc3)nccc2c1` [Example 141, N-(PYRIMIDIN-4-YL)-1-(4-(TRIFLUOROMETHYL)PHENYL)ISOQUINOLINE-6-SULFONAMIDE] are 2.3 µM and 29.6 µM.
With `COc1cc(F)c(F)cc1-c1nccc2cc(S(=O)(=O)Nc3ccncn3)ccc12` [Example 142, 1-(4,5-DIFLUORO-2-METHOXYPHENYL)-N-(PYRIMIDIN-4-YL)ISOQUINOLINE-6-SULFONAMIDE], the IC50 at Nav 1.7 [1] came to 0.06 µM; on Nav 1.7 [2], 1.79 µM.
On the same counts, the results for `COc1ccc(-c2nccc3cc(S(=O)(=O)Nc4ccncn4)ccc23)c(OC)n1` [Example 145, 1-(2,6-DIMETHOXYPYRIDIN-3-YL)-N-(PYRIMIDIN-4-YL)ISOQUINOLINE-6-SULFONAMIDE] are 0.92 µM and 16.4 µM.
Taken in the same sequence, the figures for `COc1ccc(Cl)cc1-c1nccc2cc(S(=O)(=O)Nc3ccncn3)ccc12` [Example 146, 1-(5-CHLORO-2-METHOXYPHENYL)-N-(PYRIMIDIN-4-YL)ISOQUINOLINE-6-SULFONAMIDE] were 0.03 µM and 1.37 µM.
On the same counts, the results for `COc1ccc(OC)c(-c2nccc3cc(S(=O)(=O)Nc4ccncn4)ccc23)c1` [Example 147, 1-(2,5-DIMETHOXYPHENYL)-N-(PYRIMIDIN-4-YL)ISOQUINOLINE-6-SULFONAMIDE] are 0.13 µM and 5.82 µM.
On to `COc1ccc(F)cc1-c1nccc2cc(S(=O)(=O)Nc3ccncn3)ccc12` [Example 148, 1-(5-FLUORO-2-METHOXYPHENYL)-N-(PYRIMIDIN-4-YL)ISOQUINOLINE-6-SULFONAMIDE], for which the figures for the concentration for half-maximal inhibition (IC50) at Nav 1.7 [1] and at Nav 1.7 [2] were 0.08 µM and 2.41 µM, respectively.

For orientation: IC50 means the concentration that gives 50% inhibition.
